According to patent publication US11912723B2, “KRAS modulators and uses thereof” (Quanta Therapeutics, Inc., priority 2022, dated 2024):

Legend:
[1] = target: T1, GST-tagged KRAS G12D (2-169) (Homo sapiens, UniProt P01116, G12D); assay: Nucleotide exchange assay (NEA), HTRF of SOS-mediated GTP-DY-647P1 binding; format: biochemical; conditions: 5 nM GST-KRAS G12D, 20 nM SOScat, 150 nM GTP; compound 1 h at RT
T1 construct: GST-tagged KRAS^G12D (2-169, Reaction Biology, MSC-11-539); purchased Reaction Biology MSC-11-539 (KRAS G12D); MSC-11-502 (SOS1cat)
Method in brief: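 SOS1cat (564-1049)-driven loading of GTP-DY-647P1 onto KRAS G12D, read by HTRF with anti-GST Tb cryptate donor; compound preincubated with KRAS 1 h at RT. Final 5 nM KRAS, 20 nM SOScat, 150 nM GTP, pH 7.3 HEPES buffer; read up to 90 min at RT. Blanked to no-SOS1; 4-parameter fit of % inhibition.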

[2] = tested on: AGS (KRAS G12D) cells, phospho-ERK; assay: pERK In Cell Western (ICW) assay (Method B); format: cell-based; conditions: 3 hours
Method in brief: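 AGS cells seeded at 5,000/well, grown overnight, then treated 3 h at 37 °C with ½-log 10-point dilutions (top 10 μM). Fixed cells stained for phospho-ERK, normalized to DRAQ5 DNA signal and to DMSO control; IC50 from 4-parameter variable-slope fit.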

T1 sequence (P01116 2-169 isoform P01116-2 G12D): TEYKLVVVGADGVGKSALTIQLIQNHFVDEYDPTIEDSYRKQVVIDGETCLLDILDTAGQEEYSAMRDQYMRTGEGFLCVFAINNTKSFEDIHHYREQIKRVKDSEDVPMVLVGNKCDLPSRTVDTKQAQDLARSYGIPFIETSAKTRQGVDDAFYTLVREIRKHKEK

SMILES | IC50 [1] | IC50 ([2]; Homo sapiens) | IC50 [2]
F[C@H]1CN2CCC[C@@]2(COc2nc3c(c(N4CCCCCC4)n2)COC2(CCCc4c(Br)cccc42)C3)C1 (stereo partly drawn) [Compound 5, 4-(azepan-1-yl)-5′-bromo-2-[[(2R,8S)-2-fluoro-1,2,3,5,6,7-hexahydropyrrolizin-8-yl]methoxy]spiro[5,8-dihydropyrano[4,3-d]pyrimidine-7,1′-tetralin]] | 1000 to 20000 nM | > 10 µM | –
F[C@H]1CN2CCC[C@@]2(COc2nc3c(c(N4C[C@H]5CC[C@@H](C4)N5)n2)COC2(CCCc4c(Br)cccc42)C3)C1 (stereo partly drawn) [Compound 10, 5′-bromo-4-(3,8-diazabicyclo[3.2.1]octan-3-yl)-2-[[(2R,8S)-2-fluoro-1,2,3,5,6,7-hexahydropyrrolizin-8-yl]methoxy]spiro[5,8-dihydropyrano[4,3-d]pyrimidine-7,1′-tetralin]] | 10 to 100 nM | > 10 µM | –
Oc1ccc2c(c1)C1(CCC2)Cc2nc(OC[C@@]34CCCN3C[C@H](F)C4)nc(N3CCCC(O)CC3)c2CO1 (stereo partly drawn) [Compound 14, 2-[[(2S,8R)-2-fluoro-1,2,3,5,6,7-hexahydropyrrolizin-8-yl]methoxy]-4-(4-hydroxyazepan-1-yl)spiro[5,8-dihydropyrano[4,3-d]pyrimidine-7,4′-tetralin]-6′-ol] | 1000 to 20000 nM | > 10 µM | –
OC1CCCN(c2nc(OC[C@@]34CCCN3C[C@H](F)C4)nc3c2COC2(CCCc4c(Cl)cccc42)C3)CC1 (stereo partly drawn) [Compound 15, 1-[5′-chloro-2-[[(2R,8S)-2-fluoro-1,2,3,5,6,7-hexahydropyrrolizin-8-yl]methoxy]spiro[5,8-dihydropyrano[4,3-d]pyrimidine-7,1′-tetralin]-4-yl]azepan-4-ol] | 1000 to 20000 nM | > 10 µM | –
N#CC1CCCN(c2nc(OC[C@@]34CCCN3C[C@H](F)C4)nc3c2COC2(CCc4c(Cl)cccc42)C3)CC1 (stereo partly drawn) [Compound 16, 1-(4-chloro-2′-(((2R,7aS)-2-fluorotetrahydro-1H-pyrrolizin-7a(5H)-yl)methoxy)-2,3,5′,8′-tetrahydrospiro[indene-1,7′-pyrano[4,3-d]pyrimidin]-4′-yl)azepane-4-carbonitrile] | 1000 to 20000 nM | > 10 µM | –
OC1CCCN(c2nc(OC[C@@]34CCCN3C[C@H](F)C4)nc3c2COC2(CCCc4ccc(Cl)cc42)C3)CC1 (stereo partly drawn) [Compound 17, 1-(7-chloro-2′-(((2R,7aS)-2-fluorotetrahydro-1H-pyrrolizin-7a(5H)-yl)methoxy)-3,4,5′,8′-tetrahydro-2H-spiro[naphthalene-1,7′-pyrano[4,3-d]pyrimidin]-4′-yl)azepan-4-ol] | 1000 to 20000 nM | 1 to 10 µM | –
F[C@H]1CN2CCC[C@@]2(COc2nc3c(c(N4CCC=CCC4)n2)COC2(CCc4c(Cl)cccc42)C3)C1 (stereo partly drawn) [Compound 18, 4′-chloro-2-[[(2R,8S)-2-fluoro-1,2,3,5,6,7-hexahydropyrrolizin-8-yl]methoxy]-4-(2,3,6,7-tetrahydroazepin-1-yl)spiro[5,8-dihydropyrano[4,3-d]pyrimidine-7,1′-indane]] | > 20000 nM | > 10 µM | –
CN(C)C(=O)c1cc2n(n1)CCCN(c1nc(OC[C@@]34CCCN3C[C@H](F)C4)nc3c1CO[C@]1(CCc4c(Cl)cccc41)C3)C2 [Compound 27B, 5-[(7R)-4′-chloro-2-[[(2R,8S)-2-fluoro-1,2,3,5,6,7-hexahydropyrrolizin-8-yl]methoxy]spiro[5,8-dihydropyrano[4,3-d]pyrimidine-7,1′-indane]-4-yl]-N,N-dimethyl-4,6,7,8-tetrahydropyrazolo[1,5-a][1,4]diazepine-2-carboxamide] | < 10 nM | – | 0.1 to 1 µM
CN1Cc2c(nc(OC[C@@]34CCCN3C[C@H](F)C4)nc2N2CCCCCC2)C[C@]12CCc1c(Cl)cccc12 [Compound 28A, (7S)-4-(azepan-1-yl)-4′-chloro-2-[[(2R,8S)-2-fluoro-1,2,3,5,6,7-hexahydropyrrolizin-8-yl]methoxy]-6-methyl-spiro[5,8-dihydropyrido[4,3-d]pyrimidine-7,1′-indane]] | 1000 to 20000 nM | > 10 µM | –
N#CNC1CCCN(c2nc(OC[C@@]34CCCN3C[C@H](F)C4)nc3c2COC2(CCc4c(Cl)cccc42)C3)C1 (stereo partly drawn) [Compound 29, [1-[4′-chloro-2-[[(2R,8S)-2-fluoro-1,2,3,5,6,7-hexahydropyrrolizin-8-yl]methoxy]spiro[5,8-dihydropyrano[4,3-d]pyrimidine-7,1′-indane]-4-yl]-3-piperidyl]cyanamide] | 100 to 1000 nM | 1 to 10 µM | –
CN(C)C(=O)c1cc2n(n1)CCCN(c1nc(OC[C@@]34CCCN3C[C@H](F)C4)nc3c1CN(C)C1(CCCc4ccc(O)cc41)C3)C2 (stereo partly drawn) [Compound 39, 5-[7′-hydroxy-6-methyl-2-[[(2R,8S)-2-fluoro-1,2,3,5,6,7-hexahydropyrrolizin-8-yl]methoxy]spiro[5,8-dihydropyrido[4,3-d]pyrimidine-7,1′-tetralin]-4-yl]-N,N-dimethyl-4,6,7,8-tetrahydropyrazolo[1,5-a][1,4]diazepine-2-carboxamide] | < 10 nM | 1 to 10 µM | –
CN(C)C(=O)c1cc2n(n1)CCCN(c1nc(OC[C@@]34CCCN3C[C@H](F)C4)nc3c1CN(C)[C@@]1(CCCc4ccc(O)cc41)C3)C2 [Compound 39A, 5-[(7S)-2-[[(2R,8S)-2-fluoro-1,2,3,5,6,7-hexahydropyrrolizin-8-yl]methoxy]-7′-hydroxy-6-methyl-spiro[5,8-dihydropyrido[4,3-d]pyrimidine-7,1′-tetralin]-4-yl]-N,N-dimethyl-4,6,7,8-tetrahydropyrazolo[1,5-a][1,4]diazepine-2-carboxamide] | < 10 nM | 0.1 to 1 µM | –
Cc1c(C(=O)N(C)C)nn2c1CN(c1nc(OC[C@@]34CCCN3C[C@H](F)C4)nc3c1CO[C@@]1(CCc4c(Cl)cccc41)C3)CCC2 [Compound 42, 5-[(7S)-4′-chloro-2-[[(2R,8S)-2-fluoro-1,2,3,5,6,7-hexahydropyrrolizin-8-yl]methoxy]spiro[5,8-dihydropyrano[4,3-d]pyrimidine-7,1′-indane]-4-yl]-N,N,3-trimethyl-4,6,7,8-tetrahydropyrazolo[1,5-a][1,4]diazepine-2-carboxamide] | < 10 nM | 0.1 to 1 µM | –
O=C(c1nn2c(c1Cl)CN(c1nc(OC[C@@]34CCCN3C[C@H](F)C4)nc3c1CO[C@@]1(CCc4c(Cl)cccc41)C3)CCC2)N1CCOCC1 [Compound 45, [3-chloro-5-[(7S)-4′-chloro-2-[[(2R,8S)-2-fluoro-1,2,3,5,6,7-hexahydropyrrolizin-8-yl]methoxy]spiro[5,8-dihydropyrano[4,3-d]pyrimidine-7,1′-indane]-4-yl]-4,6,7,8-tetrahydropyrazolo[1,5-a][1,4]diazepin-2-yl]-morpholino-methanone] | < 10 nM | 0.1 to 1 µM | –
C[C@@]1(NC#N)CCCN(c2nc(OC[C@@]34CCCN3C[C@H](F)C4)nc3c2COC2(CCc4c(Cl)cccc42)C3)C1 (stereo partly drawn) [Compound 46A, [(3R)-1-[(7*)-4′-chloro-2-[[(2R,8S)-2-fluoro-1,2,3,5,6,7-hexahydropyrrolizin-8-yl]methoxy]spiro[5,8-dihydropyrano[4,3-d]pyrimidine-7,1′-indane]-4-yl]-3-methyl-3-piperidyl]cyanamide; 2,2,2-trifluoroacetic acid] | 100 to 1000 nM | – | > 10 µM
CN(C)C(=O)c1nn2c(c1Cl)CN(c1nc(OCC3(CN4CCOCC4)CC3)nc3c1CO[C@@]1(CCc4c(Cl)cccc41)C3)CCC2 [Compound 47, 3-chloro-5-[(7S)-4′-chloro-2-[[1-(morpholinomethyl)cyclopropyl]methoxy]spiro[5,8-dihydropyrano[4,3-d]pyrimidine-7,1′-indane]-4-yl]-N,N-dimethyl-4,6,7,8-tetrahydropyrazolo[1,5-a][1,4]diazepine-2-carboxamide] | < 10 nM | 1 to 10 µM | –
O=C(c1nn2c(c1Cl)CN(c1nc(OC[C@@]34CCCN3C[C@H](F)C4)nc3c1CO[C@@]1(CCc4c(Cl)cccc41)C3)CCC2)N1CCNCC1 [Compound 49, [3-chloro-5-[(7S)-4′-chloro-2-[[(2R,8S)-2-fluoro-1,2,3,5,6,7-hexahydropyrrolizin-8-yl]methoxy]spiro[5,8-dihydropyrano[4,3-d]pyrimidine-7,1′-indane]-4-yl]-4,6,7,8-tetrahydropyrazolo[1,5-a][1,4]diazepin-2-yl]-piperazin-1-yl-methanone] | < 10 nM | 0.1 to 1 µM | –
CN1CCN(C(=O)c2nn3c(c2Cl)CN(c2nc(OC[C@@]45CCCN4C[C@H](F)C5)nc4c2CO[C@@]2(CCc5c(Cl)cccc52)C4)CCC3)CC1 [Compound 50, [3-chloro-5-[(7S)-4′-chloro-2-[[(2R,8S)-2-fluoro-1,2,3,5,6,7-hexahydropyrrolizin-8-yl]methoxy]spiro[5,8-dihydropyrano[4,3-d]pyrimidine-7,1′-indane]-4-yl]-4,6,7,8-tetrahydropyrazolo[1,5-a][1,4]diazepin-2-yl]-(4-methylpiperazin-1-yl)methanone] | < 10 nM | 0.1 to 1 µM | –
CN(C)C(=O)c1nn2c(c1Cl)CN(c1nc(OC[C@@]34CCCN3C[C@H](F)C4)nc3c1CN(C)[C@@]1(CCc4ccccc41)C3)CCC2 [Compound 53, 3-chloro-5-[(7S)-2-[[(2R,8S)-2-fluoro-1,2,3,5,6,7-hexahydropyrrolizin-8-yl]methoxy]-6-methyl-spiro[5,8-dihydropyrido[4,3-d]pyrimidine-7,1′-indane]-4-yl]-N,N-dimethyl-4,6,7,8-tetrahydropyrazolo[1,5-a][1,4]diazepine-2-carboxamide] | < 10 nM | 0.01 to 0.1 µM | –
